≈ marks a conversion by molar mass, not a printed value.
Columns and labels:
[1] = tested on: Mammalian orthoreovirus 1; assay: Antiviral activity against Reovirus 1 in Vero cells reduction of virus-induced cytopathogenicity after 4 days; assay type: functional, organism-based; settings: Mammalian orthoreovirus 1, Vero, 96 h
[2] = tested on: Human betaherpesvirus 5; assay type: functional, organism-based; settings: Human betaherpesvirus 5, AD169, HEL
[3] = tested on: HEL; assay: Cytotoxicity against HEL cells assessed as cell growth after 3 days; assay type: functional, Homo sapiens; settings: Homo sapiens, HEL, 72 h; read-out: CC50
[4] = tested on: Coxsackievirus B4; assay type: functional, organism-based; settings: Enterovirus B, Vero
[5] = tested on: Respiratory syncytial virus; assay type: functional, organism-based; settings: human respiratory syncytial virus, HeLa
[6] = tested on: Moloney murine sarcoma virus; settings: C3H
[7] = tested on: Vesicular stomatitis virus; assay: microbe, parasite or virus in culture; settings: HeLa
[8] = tested on: MOLT-3; assay: Cytotoxicity against MOLT3 cells assessed as alteration in morphology after 3 days; assay type: functional, Homo sapiens; settings: Homo sapiens, MOLT-3, 72 h; read-out: MCC
[9] = tested on: Human alphaherpesvirus 3; assay type: functional, organism-based; settings: Human alphaherpesvirus 3, OKA, HEL
[10] = tested on: HeLa; assay: Cytotoxicity against HeLa cells assessed as alteration in morphology after 3 days; assay type: functional, cell-based; settings: Homo sapiens, 72 h
[11] = tested on: Vesicular stomatitis virus; assay: microbe, parasite or virus in culture; settings: HEL
[12] = tested on: Human respirovirus 3; assay: Antiviral activity against Parainfluenza 3 in Vero cells reduction of virus-induced cytopathogenicity after 4 days; assay type: functional, organism-based; settings: Human respirovirus 3, Vero, 96 h
[13] = (§1) Cytotoxicity against Vero cells assessed as alteration in morphology after 3 days; assay type: cell-based, Chlorocebus sabaeus; settings: chlorocebus sabaeus, Vero cells
[14] = tested on: Punta Toro virus; assay: Antiviral activity against Punta Toro virus in Vero cells reduction of virus-induced cytopathogenicity after 4 days; assay type: functional, organism-based; settings: 96 h
[15] = tested on: Human betaherpesvirus 5; assay type: functional, organism-based; settings: Human betaherpesvirus 5, Davis, HEL
[16] = tested on: Human alphaherpesvirus 3; assay type: functional, organism-based; settings: Human alphaherpesvirus 3, 07-1, HEL
[17] = tested on: Sindbis virus; assay: Antiviral activity against Sindbis virus in Vero cells reduction of virus-induced cytopathogenicity after 4 days; assay type: functional, organism-based; settings: 96 h
[18] = tested on: Human alphaherpesvirus 2; assay type: functional, organism-based; settings: Human alphaherpesvirus 2, Lyons, HEL
[19] = tested on: Human alphaherpesvirus 2; assay type: functional, organism-based; settings: Human alphaherpesvirus 2, G, HEL
[20] = tested on: HEL; assay: Cytotoxicity against HEL cells assessed as alteration in morphology after 3 days; assay type: functional; settings: Homo sapiens, 72 h
[21] = Cytotoxicity against HSB2 cells assessed as alteration in morphology after 3 days; assay type: functional, Homo sapiens, CCRF-HSB-2; settings: Homo sapiens, CCRF-HSB-2, 72 h; read-out: MCC
[22] = Cytotoxicity against C3H cells assessed as alteration in morphology after 3 days; assay type: cell-based, Mus musculus; settings: for MCC at 72 h: mouse, C3H cells
[23] = tested on: Coxsackievirus B4; assay type: functional, organism-based; settings: Enterovirus B, HeLa
[24] = tested on: Human immunodeficiency virus 2; assay type: functional, organism-based; settings: Human immunodeficiency virus 2, ROD, CCRF-CEM, 96 h
[25] = tested on: Human adenovirus 2; assay type: functional, organism-based; settings: Human mastadenovirus C, HEL
[26] = tested on: Vero; assay: as §1; assay type: cell-based, Chlorocebus sabaeus; settings: Chlorocebus sabaeus, Vero, 72 h
[27] = tested on: Human immunodeficiency virus 1; assay type: functional, organism-based; settings: Human immunodeficiency virus 1, 3B, CCRF-CEM, 96 h
[28] = tested on: CCRF-CEM; assay: Cytotoxicity against CEM cells assessed as cell growth after 3 days; assay type: functional; settings: Homo sapiens, 72 h

SMILES | EC50 [1] [µg/mL] | EC50 [2] [µg/mL] | CC50 [3] [µg/mL] | EC50 [4] [µg/mL] | EC50 [5] [µg/mL] | EC50 [6] [µg/mL] | EC50 [7] [µg/mL] | EC50 [9] [µg/mL] | MCC [10] [µg/mL] | EC50 [11] [µg/mL] | EC50 [12] [µg/mL] | MCC at 72 h [13] [µg/mL] | EC50 [14] [µg/mL] | EC50 [15] [µg/mL] | EC50 [16] [µg/mL] | EC50 [17] [µg/mL] | EC50 [18] [µg/mL] | EC50 [19] [µg/mL] | MCC [20] [µg/mL] | EC50 [23] [µg/mL] | also measured
Nc1ncn(C[C@H]2COP(=O)(O)CO2)c(=O)n1 | > 200 | 0.07 (≈ 0.267 µM) | > 100 | > 200 | > 200 | > 20 | > 200 | 0.12 (≈ 0.458 µM) | > 200 | > 200 | > 200 | > 200 | > 200 | 0.06 (≈ 0.229 µM) | 0.04 (≈ 0.153 µM) | > 200 | 0.48 (≈ 1.83 µM) | 0.61 (≈ 2.33 µM) | > 100 | > 200 | MCC [8]: 33 µg/mL; MCC [21]: 200 µg/mL; MCC at 72 h [22]: 100 µg/mL
Nc1ncnc2c1ncn2C[C@H](O)CO [(S)-DHPA] | 200 (≈ 956 µM) | – | – | > 200 | > 200 | – | 120 (≈ 574 µM) | – | > 200 | – | > 200 | > 200 | > 200 | – | – | > 200 | – | – | – | > 200 | –
CCCCCCCCCCCCCCCCCCOP1(=O)CO[C@@H](Cn2cnc(N)nc2=O)CO1 (stereo partly drawn) | > 8 | 0.0037 (≈ 0.00719 µM) | > 100 | > 8 | > 40 | > 4 | > 40 | 0.04 (≈ 0.0777 µM) | – | > 1.6 | > 8 | – | > 8 | 0.0014 (≈ 0.00272 µM) | 0.009 (≈ 0.0175 µM) | > 8 | 1.31 (≈ 2.55 µM) | 1.66 (≈ 3.23 µM) | 8 | > 40 | EC50 [24]: > 20 µg/mL; MCC [8]: 0.8 µg/mL; EC50 [10]: 200 µg/mL (≈ 389 µM); EC50 [25]: 0.051 µg/mL (≈ 0.0991 µM); EC50 [26]: 40 µg/mL (≈ 77.7 µM); EC50 [27]: > 20 µg/mL; CC50 [28]: 12 µg/mL (≈ 23.3 µM); MCC [21]: ≥ 5 µg/mL; EC50 ([22]; Mus musculus, C3H, 72 h): 20 µg/mL (≈ 38.9 µM)
O=c1[nH]c(=O)n([C@H]2C[C@H](O)[C@@H](CO)O2)cc1/C=C/Br [BRIVUDINE] | > 200 | – | 212 (≈ 636 µM) | > 200 | > 200 | – | 200 (≈ 600 µM) | 0.0022 (≈ 0.0066 µM) | > 200 | 200 (≈ 600 µM) | > 200 | > 200 | > 200 | – | ≥ 44.4 | > 200 | 8.8 (≈ 26.4 µM) | 9 (≈ 27 µM) | > 100 | > 200 | –
Nc1nc2c(ncn2COCCO)c(=O)[nH]1 [ACYCLOVIR] | – | – | 212 (≈ 941 µM) | – | – | – | – | – | – | – | – | – | – | – | – | – | – | 0.05 (≈ 0.222 µM) | > 100 | – | –
Nc1ccn(C[C@H]2COP(=O)(O)CO2)c(=O)n1 [CYCLIC CIDOFOVIR] | > 200 | 0.21 (≈ 0.804 µM) | ≥ 76 | > 200 | > 200 | > 20 | > 200 | 0.12 (≈ 0.459 µM) | > 200 | > 200 | > 200 | > 200 | > 200 | 0.22 (≈ 0.842 µM) | 0.04 (≈ 0.153 µM) | > 200 | 0.45 (≈ 1.72 µM) | 0.76 (≈ 2.91 µM) | > 100 | > 200 | EC50 [24]: > 20 µg/mL; EC50 [27]: > 20 µg/mL; MCC at 72 h [22]: 100 µg/mL

Reference: ChEMBL document CHEMBL1138246, “Ester prodrugs of cyclic 1-(S)-[3-hydroxy-2-(phosphonomethoxy)propyl]-5-azacytosine: synthesis and antiviral activity” (J Med Chem, 2007)
